Tests used:
[1] = test system: BAF3wt; assay: Cellular screening, BaF3 wild-type cells (Alamar Blue); assay type: cell-based; conditions: Mus musculus, 40 hr incubation
Procedure: (§1) For screening purposes, compounds were diluted in 96 well plates at a concentration of 20 μM. Plates were warmed at 37° C. for 30 minutes before the assay was performed.
(§2) The growth factor dependant myelomonocytic cell line BaF3 bearing the pTET-off plasmid (Clontech) was transfected with either pTELJAK2 or pTELJAK3, and the transfected cells were selected for growth-factor independent cell growth. The BaF3 wild-type cells were cultured in DMEM containing 10% FCS, 10% WEHI 3B conditioned medium. The BaF3 TELJAK cells ([…]) were cultured in DMEM 10% Tet-System Approved FBS (without WEHI 3B conditioned medium).
(§3) Cell suspensions were prepared by harvesting cells from culture. (the cells used in this test were in late log phase growth with high viability.) Cells were diluted in the appropriate growth medium, as described above, to 1.1× final concentration (from 50,000 cell/mL to 200,000 cell/mL, depending on cell line).
(§4) Compounds to be tested were added (10 μL, 10× final concentration) to a flat bottomed 96-well plate. The cellular suspension (90 μL per well) was then added, and the plate incubated for 40 hr at 37° C., 5% CO2. Alamar Blue 10 μL per well was added and the plates returned to the incubator for a further 4-6 hours. The plates were then read at 544 nm.

[2] = test system: BafT_J2; assay: Cellular screening, BaF3 TEL:JAK2 cells (Alamar Blue); assay type: cell-based; conditions: Mus musculus, 40 hr incubation
Procedure: as §1
(§5) The coding region encompassing nucleotides 1-487 of TEL was amplified by PCR using the oligonucleotides 5TEL (5′-GGAGGATCCTGATCTCTCTCGCTGTGAGAC-3′) [SEQ ID NO 14] and 3TEL (5′-AGGC GTCGACTTCTTCTTCATGGTTCTG-3′) [SEQ ID NO 15] and U937 mRNA as a template. A BamHI restriction site was incorporated into the 5TEL primer, and a Sal I restriction site was incorporated into the 3TEL primer. The regions encompassing the kinase domain of JAK2 (nucleotides 2994-3914; JAK2F 5′-ACGC GTCGACGGTGCCTTTGAAGACCGGGAT-3′ [SEQ ID NO 16]; JAK2R 5′-ATAGTTTAGCGGCCGCTCAGAATGAAGGTCATTT-3′) [SEQ ID NO 17] and JAK3 (nucleotides 2520-3469; JAK3F 5′-GAAGTCGACTATGCCTGCCAAGACCCCACGATCTT-3′) [SEQ ID NO 18] were generated by PCR using Taq DNA polymerase (Gibco/BRL) and U937 mRNA as a template. A Sal I restriction site was incorporated into the forward primer of JAK2 and JAK3, a Not I site was incorporated into the JAK2 reverse primer and a Xba I site was added to the reverse primer of JAK3.
A TEL/Jak2 fusion was generated by digestion of the TELPCR product with BamH I/Sal I restriction enzymes, digestion of the JAK2 PCR product with Sal I/Not I restriction enzymes, followed by ligation and subcloning of the ligation product into the mammalian expression Vector pTRE 2 (Clontech), which was prepared by digestion with BamH I-Not I restriction enzymes, to give the TEL/Jak2 fusion plasmid pTELJAK2.
as §2, §3, §4

[3] = test system: BafT_J3; assay: Cellular screening, BaF3 TEL:JAK3 cells (Alamar Blue); assay type: cell-based; conditions: Mus musculus, 40 hr incubation
Procedure: as §1, §5
The TEL/Jak3 fusion was prepared by ligation of the JAK3 Sal I/Not I cleaved kinase domain PCR product with the BamH I/Sal I restriction digested TEL product, followed by ligation of the ligation product into the BamH I/Not I digested pTRE2, to give the TEL/Jak3 fusion plasmid pTELJAK3.
as §2, §3, §4

[4] = target: T1, human JAK3 (Homo sapiens, UniProt P52333); assay: JAK3 kinase enzyme assay (Alphascreen); assay type: biochemical; conditions: 80 or 625 um ATP
T1 construct: The kinase domain of human JAK3 was amplified; GST (N); made in house; host or cells: Sf9 (Spodoptera frugiperda) insect cells, baculovirus
Procedure: (§6) For screening purposes, compounds (in 100% DMSO) were warmed at 37 degrees for at least 20 minutes before use. A […] stock was initially made in assay buffer, where the final concentration of DMSO was 0.3%. The stocks were then diluted in 384 well Optiplates (Packard) where the final concentration of the compound was 5 μM.
The kinase domain of human JAK3 was amplified from U937mRNA using the polymerase chain reaction with the following primers: […]
The JAK3 PCR products were cloned into the pDest20 destination expression vector (Gibco). The JAK3 plasmid was then transformed into competent DH10Bac cells (Gibco), and the recombinant baculovirus was prepared via Sf9 insect cell transfection.
(§7) Baculovirus preparations from each of the JAK family members were infected into one litre of Sf9 (Spodoptera frugiperda) cells (Invitrogen) grown in SF900II serum free medium (Invitrogen) to a cell density of approximately 2×10^6 cells/ml. Cells were infected with virus at a cell culture to virus stock ratio of 20:1. Cells were harvested and lysed 48 hours post infection. The GST-tagged JAK kinase domains were purified by affinity chromatography on a GSH agarose column (Scientifix).
(§8) Kinase assays were performed in 384 well Optiplates (Packard) using an Alphascreen Protein Tyrosine KinaseP100 detection kit The compounds were pre-incubated with affinity purified PTK domain in the presence of phosphotyrosine assay buffer (10 mM HEPES, pH 7.5, 100 mM MgCl2, 25 mM NaCl, 200 mM sodium vanadate and 0.1% Tween 20) for 20 minutes. The compounds were then incubated with substrate in the presence of either 80 or 625 um ATP for 60 or 90 minutes. The substrate used was either susbtrate-1 with the sequence biotin-EGPWLEEEEEAYGWMDF-NH2 [SEQ. ID. NO. 13] (final concentration 111 μM) or susbtrate-2 substrate with the sequence biotin-EQEDEPEGDYFEWLEPE (final concentration 133 μM). Alphascreen phosphotyrosine acceptor beads followed by streptavidin donor beads at a concentration of 1/100 in stop buffer were added to each well under subdued light and incubated for 2-3 hours. The Alphascreen plates were read on a Packard Fusion Alpha instrument.

[5] = test system: CTLL2; assay: Cellular screening, CTLL2 cells (Alamar Blue); assay type: cell-based; conditions: Mus musculus, CTLL-2, 40 hr incubation
Procedure: as §1, §3, §4

[6] = target: T2, human JAK2 (Homo sapiens, UniProt O60674); assay: JAK2 kinase enzyme assay (Alphascreen); assay type: biochemical; conditions: 80 or 625 um ATP
T2 construct: The kinase domain of human JAK2 was amplified; GST (N); made in house; host or cells: Sf9 (Spodoptera frugiperda) insect cells, baculovirus
Procedure: as §6
The kinase domain of human JAK2 was amplified from U937mRNA using the polymerase chain reaction with the following primers: […]
The JAK2 PCR products were cloned into the pDest20 destination vector (Gibco). The JAK2 plasmid was then transformed into competent DH10Bac cells (Gibco), and the recombinant baculovirus was prepared via Sf9 insect cell transfection.
as §7, §8

T2 sequence (O60674 849-1124 limits assumed): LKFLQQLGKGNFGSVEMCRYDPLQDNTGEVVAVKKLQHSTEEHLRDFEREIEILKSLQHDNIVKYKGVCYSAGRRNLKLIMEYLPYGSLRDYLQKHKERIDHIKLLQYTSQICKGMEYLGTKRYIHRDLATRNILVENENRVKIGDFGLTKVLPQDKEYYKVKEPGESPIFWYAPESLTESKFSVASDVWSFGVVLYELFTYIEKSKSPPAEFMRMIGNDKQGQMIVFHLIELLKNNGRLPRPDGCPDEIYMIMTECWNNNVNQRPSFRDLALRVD
T1 sequence (P52333 822-1111 limits assumed): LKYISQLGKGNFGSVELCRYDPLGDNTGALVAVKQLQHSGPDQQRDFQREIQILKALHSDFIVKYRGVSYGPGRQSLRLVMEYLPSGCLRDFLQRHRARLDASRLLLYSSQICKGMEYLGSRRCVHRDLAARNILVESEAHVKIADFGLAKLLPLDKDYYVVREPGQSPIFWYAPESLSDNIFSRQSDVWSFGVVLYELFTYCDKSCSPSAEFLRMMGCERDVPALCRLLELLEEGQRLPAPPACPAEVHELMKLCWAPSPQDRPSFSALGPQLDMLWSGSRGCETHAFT

| Structure (SMILES) | IC50 [1] | IC50 [2] | IC50 [3] | IC50 [4] | IC50 [5] | IC50 [6] |
| --- | --- | --- | --- | --- | --- | --- |
| CS(=O)(=O)Nc1cccc(-c2csc3cnc(Nc4ccc(CN5CCOCC5)cc4)nc23)c1 [Compound 83, N-(3-(2-(4-(morpholinomethyl)phenylamino)thieno[3,2-d]pyrimidin-7-yl)phenyl)methanesulfonamide] | < 1000 nM | < 1000 nM | < 1000 nM | < 100 nM | < 1000 nM | < 100 nM |
| CN1CCN(c2ccc(-c3csc4cnc(Nc5ccc(CN6CCOCC6)cc5)nc34)cc2)CC1 [Compound 84, 7-(4-(4-methylpiperazin-1-yl)phenyl)-N-(4-(morpholinomethyl)phenyl)thieno[3,2-d]pyrimidin-2-amine] | < 1000 nM | < 1000 nM | < 1000 nM | < 500 nM | < 1000 nM | < 100 nM |
| COc1cc(-c2csc3cnc(Nc4ccc(CN5CCOCC5)cc4)nc23)ccc1NC(C)=O [Compound 85, N-(2-methoxy-4-(2-(4-(morpholinomethyl)phenylamino)thieno[3,2-d]pyrimidin-7-yl)phenyl)acetamide] | < 1000 nM | < 1000 nM | < 1000 nM | < 100 nM | < 1000 nM | < 100 nM |
| COc1cc(Nc2ncc3scc(-c4cccc(CO)c4)c3n2)cc(OC)c1OC [Compound 87, (3-(2-(3,4,5-trimethoxyphenylamino)thieno[3,2-d]pyrimidin-7-yl)phenyl)methanol] | < 1000 nM | < 1000 nM | < 1000 nM | < 100 nM | < 1000 nM | < 100 nM |
| COc1cc(Nc2ncc3scc(-c4ccc(CO)cc4)c3n2)cc(OC)c1OC [Compound 88, (4-(2-(3,4,5-trimethoxyphenylamino)thieno[3,2-d]pyrimidin-7-yl)phenyl)methanol] | < 1000 nM | < 1000 nM | < 1000 nM | < 100 nM | < 1000 nM | < 100 nM |
| OCc1cccc(-c2csc3cnc(Nc4ccc(N5CCOCC5)cc4)nc23)c1 [Compound 89, (3-(2-(4-morpholinophenylamino)thieno[3,2-d]pyrimidin-7-yl)phenyl)methanol] | < 1000 nM | < 1000 nM | < 1000 nM | < 100 nM | < 1000 nM | < 100 nM |
| OCc1ccc(-c2csc3cnc(Nc4ccc(N5CCOCC5)cc4)nc23)cc1 [Compound 90, (4-(2-(4-morpholinophenylamino)thieno[3,2-d]pyrimidin-7-yl)phenyl)methanol] | < 1000 nM | < 1000 nM | < 1000 nM | < 100 nM | < 1000 nM | < 100 nM |
| CS(=O)(=O)NCc1cccc(-c2csc3cnc(Nc4ccc(OCCN5CCCC5)cc4)nc23)c1 [Compound 91] | < 1000 nM | < 1000 nM | < 1000 nM | < 100 nM | < 1000 nM | < 100 nM |
| CC(C)(C)OC(=O)NCc1cccc(-c2csc3cnc(Nc4ccc(CN5CCOCC5)cc4)nc23)c1 [Compound 92] | < 1000 nM | < 5000 nM | < 5000 nM | < 500 nM | < 1000 nM | < 100 nM |
| c1cc(-c2csc3cnc(Nc4ccc(CN5CCOCC5)cc4)nc23)cc(N2CCNCC2)c1 [Compound 93, N-(4-(morpholinomethyl)phenyl)-7-(3-(piperazin-1-yl)phenyl)thieno[3,2-d]pyrimidin-2-amine] | < 1000 nM | < 1000 nM | < 1000 nM | < 100 nM | < 1000 nM | < 100 nM |
| COc1cc(Nc2ncc3scc(-c4ccc(NCCN5CCOCC5)nc4)c3n2)cc(OC)c1OC [Compound 94, 7-(6-(2-morpholinoethylamino)pyridin-3-yl)-N-(3,4,5-trimethoxyphenyl)thieno[3,2-d]pyrimidin-2-amine] | < 1000 nM | < 1000 nM | < 1000 nM | < 500 nM | < 1000 nM | < 100 nM |
| CCc1ccccc1-c1csc2cnc(Nc3ccc(OCCN4CCCC4)cc3)nc12 [Compound 95, 7-(2-ethylphenyl)-N-(4-(2-(pyrrolidin-1-yl)ethoxy)phenyl)thieno[3,2-d]pyrimidin-2-amine] | < 1000 nM | < 1000 nM | < 1000 nM | < 100 nM | < 1000 nM | < 100 nM |
| CC(C)c1ccccc1-c1csc2cnc(Nc3ccc(OCCN4CCCC4)cc3)nc12 [Compound 96] | < 1000 nM | < 1000 nM | < 1000 nM | < 100 nM | < 1000 nM | < 100 nM |
| NCc1ccc(-c2csc3cnc(Nc4ccc(CN5CCOCC5)cc4)nc23)cc1 [Compound 97, 7-(4-(aminomethyl)phenyl)-N-(4-(morpholinomethyl)phenyl)thieno[3,2-d]pyrimidin-2-amine] | < 1000 nM | < 1000 nM | < 1000 nM | < 100 nM | < 1000 nM | < 100 nM |
| CCN1CCC(Oc2ccc(Nc3ncc4scc(-c5cn[nH]c5)c4n3)cc2)CC1 [Compound 98, N-(4-(1-ethylpiperidin-4-yloxy)phenyl)-7-(1H-pyrazol-4-yl)thieno[3,2-d]pyrimidin-2-amine] | < 1000 nM | < 1000 nM | < 1000 nM | < 100 nM | < 1000 nM | < 100 nM |

Source: patent publication US8765755B2, “N-containing heterocyclic compounds” (YM Biosciences Australia Pty Ltd, priority 2007, dated 2014)
